Test results reported in patent US20230355612A1 (SHANGHAI BOCIMED PHARMACEUTICAL CO., LTD., priority 2020, published 2023).
Converted amounts (≈) assume the structure as drawn. Structures can show the parent of a compound that is named as a salt. Where two headings read alike, the source gives them in different places.

What was measured:
[1] = physchem; conditions: for solubility at 24 h: 37 °C, thermodynamic from solid
Protocol: The mixtures were shaken at 37° C. for 24 h and filtered through 0.45 μm aqueous-phase filter membranes. The filtrates were collected and the solubility was determined by high performance liquid chromatography. pH3, pH4, pH5 and pH6 represent acetate buffer solutions, and pH7, pH7.4, pH8 and pH9 represent phosphate buffer solutions.

[2] = Pharmacokinetic experiment in rats (plasma cariprazine, LC-MS/MS); format: in vivo, SD rats
Protocol: In the whole experiment, the animals from the intramuscular injection group were given ad libitum access to food and water, and those from the oral intragastrical group were fasted overnight before administration and given access to food 4 h after administration.
Plasma sample collection: about 150 μL of blood was collected from the jugular vein (whole blood was centrifuged within 30 min to isolate plasma) and placed in a tube containing anticoagulant EDTA-K2, and after treatment, plasma was stored in a freezer at −70° C. before use.
Pretreatment of plasma sample: to 30 μL of plasma sample was added 200 μL of internal standard solution (40 ng/mL Glipizide acetonitrile solution); the mixture was vortexed for 1 min and centrifuged at 5800 rpm at 4° C. for 10 min; 100 μL of supernatant was transferred to a new plate and 1 μL of solution was taken for LC-MS/MS analysis.

[3] = Crystalline form stability of solids under stress conditions (XRPD); format: physicochemical
Protocol: (§1) Unless otherwise indicated, the starting materials and reagents in the examples below are either commercially available or prepared by one skilled in the art according to methods known in the art. The salt compounds of the examples were tested by nuclear magnetic resonance (^1H-NMR), X-ray powder diffraction (XRPD), differential scanning calorimetry (DSC), thermogravimetric analysis (TGA), hot-stage polarized light microscopy (PLM) and high performance liquid chromatography (HPLC), and the test parameters are as follows: • (1) The ^1H-NMR measurements were taken on a Bruker Advance III500M nuclear magnetic resonance spectrometer at a frequency of […] with deuterated DMSO as the solvent. • (2) The DSC measurements were taken on a sealed pan device in TA Instruments model Q2000: samples (about 1-2 mg) were weighed in aluminum pans and transferred to the instrument for measurement. The test parameters are as follows: the instrument was equilibrated at 30° C. and heated to 300° C. at a rate of 10° C./min, data was collected, and the experiments were conducted in a nitrogen atmosphere. • (3) The TGA measurements were taken on a TA Instruments model Q500 device: samples (about 2-5 mg) were weighed in aluminum pans and transferred to the instrument for measurement. The test parameters are as follows: the instrument was heated to 350° C. at a rate of 10° C./min, data was collected, and the experiments were conducted in a nitrogen atmosphere. • (4) The XRPD measurements were taken on a Bruker model D8 Advance X-ray powder diffractometer using a round zero background single crystal silicon sample stage. The scan parameters are as follows: voltage, 40 kv; current, 40 mA; scan range, 3-45°; scan increment, 0.02°; scan mode, continuous scan. • (5) The PLM analyses were performed under a model DYP990/TPH350 hot stage polarizing microscope from Shanghai Dian Ying Optical Instruments: a small amount of sample was dispersed in a glass slide and photographed using an eyepiece lens at a magnification of 10× and an objective lens at a magnification of 5-40×. • (6) Methods of measuring HPLC content and detecting related substances: […]

[4] = Related substances stability of solids under stress conditions (HPLC); format: physicochemical; conditions: for Total related substances: left to stand under these conditions for 10 days
Protocol: as §1

[5] = In vitro dissolution simulation experiment, phosphate buffer pH 7.4; format: physicochemical; conditions: pH 7.4 phosphate buffer, 37° C.
Protocol: The mixtures were shaken at 37° C.

[6] = left to stand under these conditions for 10 days

Row | Molecule | Total related substances [4] | Concentration ([5]; 1 (h)) | Concentration ([5]; 3.5 (h)) | Concentration ([5]; 5 (h)) | Concentration ([5]; 7 (h)) | Concentration ([5]; 24 (h)) | also measured
1 | CN(C)C(=O)N[C@H]1CC[C@H](CCN2CCN(c3cccc(Cl)c3Cl)CC2)CC1 [Cariprazine] | – | – | – | – | – | – | solubility at 24 h ([1]; pH 8, aqueous buffer): 1 µg/mL (≈ 2.34 µM); solubility at 24 h ([1]; water): ~180 µg/mL (≈ 421 µM)
2 | CN(C)C(=O)NC1CCC(CCN2CCN(c3cccc(Cl)c3Cl)CC2)CC1 (centres unmarked) [cariprazine embonate] | – | – | – | – | – | – | Absorption after oral administration ([2]; rat, in vivo, po, 0.3 mg/kg): fast absorption; Crystalline form ([3]; high-humidity conditions and accelerated conditions): change into crystalline form A of cariprazine embonate; Crystalline form ([3]; high-temperature conditions and illuminated conditions): its crystalline form did not change
3 | CN(C)C(=O)N[C@H]1CC[C@H](CCN2CCN(c3cccc(Cl)c3Cl)CC2)CC1 [cariprazine hydrochloride] | – | – | – | – | – | – | solubility at 24 h ([1]; pH 3, aqueous buffer): 12300 µg/mL; solubility at 24 h ([1]; pH 4, aqueous buffer): 9770 µg/mL; solubility at 24 h ([1]; pH 5, aqueous buffer): 1080 µg/mL; solubility at 24 h ([1]; water): ~11000 µg/mL
4 | CN(C)C(=O)NC1CCC(CCN2CCN(c3cccc(Cl)c3Cl)CC2)CC1 (centres unmarked) [Crystalline form A of cariprazine embonate] | remained substantially unchanged | 1000 ng/mL | 3400 ng/mL | 4100 ng/mL | 3900 ng/mL | 2500 ng/mL | Length of release among the crystalline forms ([2]; rats, single intramuscular injection 9 mg/kg): best length of release; Crystalline form [3, 6]: its crystalline form did not change; Crystallinity [3, 6]: did not change significantly
5 | cariprazine succinate | – | – | – | – | – | – | Solubility [1]: >261.2 µg/mL; Solubility ([1]; pH 3): >215.5 µg/mL; Solubility ([1]; pH 9): <215.5 µg/mL
6 | CN(C)C(=O)NC1CCC(CCN2CCN(c3cccc(Cl)c3Cl)CC2)CC1 (centres unmarked) [Crystalline form G of cariprazine embonate] | remained substantially unchanged | 1300 ng/mL | 4510 ng/mL | 2280 ng/mL | 1840 ng/mL | 8050 ng/mL | –
7 | cariprazine malate | – | – | – | – | – | – | Solubility [1]: >1065.7 µg/mL; Solubility ([1]; pH 3): >266.4 µg/mL; Solubility ([1]; pH 5): >228.4 µg/mL; Solubility ([1]; pH 7): <304.5 µg/mL; Solubility ([1]; pH 9): <152.2 µg/mL
8 | CN(C)C(=O)NC1CCC(CCN2CCN(c3cccc(Cl)c3Cl)CC2)CC1 (centres unmarked) [Crystalline form B of cariprazine embonate] | remained substantially unchanged | 5300 ng/mL | 4000 ng/mL | 5200 ng/mL | 2200 ng/mL | 1700 ng/mL | –
9 | CN(C)C(=O)NC1CCC(CCN2CCN(c3cccc(Cl)c3Cl)CC2)CC1 (centres unmarked) [Amorphous cariprazine embonate, cariprazine embonate] | – | 11940 ng/mL | 10300 ng/mL | 9580 ng/mL | 7080 ng/mL | 9900 ng/mL | Increase in impurities ([4]; high-temperature conditions): bigger increase in impurities
